{
  "source": "patent US20120070852A1",
  "about": "“ASSAY” (IMPERIAL INNOVATIONS LIMITED, priority 2008, published 2012)",
  "biological_target": "T1, p300 catalytic domain (Homo sapiens, UniProt Q09472)",
  "T1 construct": "40 ng/ml recombinant purified p300 catalytic domain (Millipore); purchased Millipore",
  "T1 sequence (Q09472 1287-1663 limits assumed)": "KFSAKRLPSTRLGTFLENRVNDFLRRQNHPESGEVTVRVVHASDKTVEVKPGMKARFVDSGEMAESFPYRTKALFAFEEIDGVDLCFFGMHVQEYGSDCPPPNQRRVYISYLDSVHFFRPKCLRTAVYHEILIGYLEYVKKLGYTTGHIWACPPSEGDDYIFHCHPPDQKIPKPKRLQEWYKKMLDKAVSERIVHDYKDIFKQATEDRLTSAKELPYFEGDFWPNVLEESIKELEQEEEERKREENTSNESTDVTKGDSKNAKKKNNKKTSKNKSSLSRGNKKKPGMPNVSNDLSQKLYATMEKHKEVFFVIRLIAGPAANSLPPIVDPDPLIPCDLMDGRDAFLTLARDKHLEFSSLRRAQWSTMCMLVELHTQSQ",
  "assay": "QD-FRET p300 HAT assay, inhibitor response",
  "format": "biochemical",
  "conditions": "40 ng/ml p300 catalytic domain, 100 μM acetyl-CoA, 25 μM substrate peptide, 2 hr at 30° C.",
  "method": "p300 assay: In a final volume of 14 μl, 25 μM substrate peptide was incubated with 40 ng/ml recombinant purified p300 catalytic domain (Millipore) in the presence or absence of 100 μM acetyl-CoA (Sigma-Alrich) and different concentrations of anacardic acid in 50 mM Tris-HCl buffer (pH 8.0) containing 0.1% (w/v) BSA (reaction buffer) for 2 hr at 30° C. An aliquot of this reaction mixture was transferred to a 10 μl solution of 50 nM quantum dots and 300 nM Alexa Fluor 647-labelled anti-AcK antibody to achieve a peptide to Qdot ratio of 40:1 and the mixture allowed to incubate for 30 min at room temperature. Fluorescence intensity data were collected with […] on a SpectraMax M5 microplate reader (Molecular Devices) using a 400 nm excitation source.\nA synthetic peptide substrate for p300 containing an appending hexahistidine motif was exposed to p300 enzyme in the presence of acetyl-CoA to allow enzymatic acetylation of the peptide. […] This acetylation event was detected by means of an anti-acetyl lysine antibody labelled with a fluorescent dye, which binds selectively to the acetylated lysine residues of the quantum dot-bound peptide. […] This is indicated in the fluorescence spectra as a concomitant decrease in emission at 605 nm and enhanced emission at 670 nm from the Qdot and dye molecules respectively—see FIG. 8.",
  "data": [
    {"molecule": "CCCCCCCCCCCCCCCc1cccc(O)c1C(=O)O", "note": "[anacardic acid]", "values": [
      {"measurement": "effect of serial dilutions of inhibitor on dye-specific emission at 670 nm (energy transfer)", "result": "dose-dependent decrease in dye-specific emission at 670 nm"}
    ]}
  ]
}
